Results published in publication PMC10974276, “Physiological Functions of the Cello-Oligosaccharides Binding CebE in the Pathogenic Streptomyces sp. AMCC400023” (Microorganisms, 2024).

How the values were obtained:
CebE^5601 = molecular target: T1, CebE^5601; assay: microscale thermophoresis; type: binding, Streptomyces sp. AMCC400023; conditions: 25 °C; protein 800 nM, dye-labelled; ligand series from 100 µM
T1 construct: N-terminal His tag (pET28a); E. coli BL21(C43); Ni-NTA; labelled with red fluorescent dye

CebE^7671 = molecular target: T2, CebE^7671; assay: microscale thermophoresis; type: binding, Streptomyces sp. AMCC400023; conditions: 25 °C; protein 800 nM, dye-labelled; ligand series from 270 mM
T2 construct: N-terminal His tag (pET28a); E. coli BL21(C43); Ni-NTA

SMILES | Kd (CebE^5601) | Kd (CebE^7671)
OC[C@H]1O[C@@H](O[C@H]2[C@H](O)[C@@H](O)C(O)O[C@@H]2CO)[C@H](O)[C@@H](O)[C@@H]1O (stereo partly shown) [cellobiose] | 0.977 µM | 1280 µM
OC[C@H]1O[C@@H](O[C@H]2[C@H](O)[C@@H](O)[C@H](O[C@H]3[C@H](O)[C@@H](O)C(O)O[C@@H]3CO)O[C@@H]2CO)[C@H](O)[C@@H](O)[C@@H]1O (stereo partly shown) [cellotriose] | 1.61 µM | 2720 µM
